Source: patent publication US20060165732A1, “Fungal antigens and eosinophil activity” (priority 2002, published 2006)
Read-outs that look alike come from different tables or passages of the source.

Tests used:
[1] = tested on: Alternaria-induced eosinophil degranulation; assay: Effect of test agents on Alternaria-induced eosinophil degranulation (EDN release); type: cell-based, human
Experimental: (§1) To monitor eosinophil degranulation, 200 μL of freshly isolated eosinophils were resuspended in HBSS with 25 mM HEPES and 0.01% gelatin at 5×10^5 cells/mL and incubated with the a particular fungal extract. After incubation for 3 hours at 37° C. in a 5% CO2 atmosphere, cell-free supernatants from each well were collected and stored at −20° C. To quantitate eosinophil degranulation, the concentration of one of the eosinophil granule proteins in the sample supernatants, EDN, was measured by specific RIA, as described previously (Horie & Kita, 1994, J. Immunol., 152:5457). The RIA is a double-Ab competition assay in which radioiodinated EDN, rabbit anti-EDN Ab, and burro anti-rabbit IgG are used (Abu-Ghazaleh et al., 1989, J. Immunol., 142:2393). Sensitivity of the kit was 2 ng/mL. Total cellular EDN was measured in parallel supernatants from cells lysed with Nonidet P-40 detergent (Sigma Chemical Co.). All experiments were conducted in duplicate.
The mechanism of the eosinophil degranulation response to Alternaria antigens was examined. To test whether Alternaria proteases are involved in eosinophil activation, Alternaria extracts either were pretreated with a cocktail of protease inhibitors (Complete™, Roche Molecular Biochemicals, Indianapolis, Ind.) or were not pretreated (control). Eosinophils then were incubated with the pretreated or control Alternaria extracts for 4 hours, and EDN release was measured.
(§2) To examine the effect of cytochalasin B in the eosinophil response, eosinophils were preincubated with or without cytochalasin B (5 μg/mL) for 15 minutes at 37° C. After preincubation, eosinophils were exposed to either Alternaria culture extract (100 μg/mL) or IL-5 (10 ng/mL) for 3 hours at 37° C., and EDN release from eosinophils was measured.
(§3) Next, the effect of a Ca^2+ chelator, EGTA, on Alternaria- or IL-5-induced eosinophil degranulation was investigated.
(§4) Eosinophils were pre-treated with various concentrations of ionomycin (FIG. 8D) or thapsigargin (FIG. 8E) for 15 minutes, and then exposed to Alternaria culture extract (100 μg/mL) or IL-5 (10 ng/mL) for 3 hours at 37° C.

[2] = tested on: IL-5-induced eosinophil degranulation; type: cell-based, human
Experimental: as §1, §2, §3, §4

[3] = tested on: PBMC; assay: Effect of fluticasone propionate on IL-5 production by PBMC (ELISA); type: cell-based, human
Experimental: PBMC were isolated from 30 mL of blood drawn from patients with chronic sinusitis, bronchial asthma, or normal individuals by density centrifugation using Histopaque®. Cells were then suspended in RPMI 1640 medium supplemented with 10% fetal bovine serum at 2×10^6 cells/mL and incubated for 3 days at 37° C. in 96-well tissue culture plates with medium alone, 25 μg/mL Alternaria cellular extract, 25 μg/mL Dermatophagoides Pteronyssinus (Der P; Greer Laboratories; a mite allergen), or 5 μg/mL Concanavalin A. Since Concanavalin A is a very potent inducer, supernatants of PBMC were diluted 50-fold before they were analyzed for the presence of IL-5.
To examine the effects of glucocorticoids on the eosinophilic response, fluticasone propionate (10^−10 M to 10^−6 M, GlaxoSmithKline) was added to the culture. After incubation, cell-free supernatants were collected and analyzed for IL-5 concentrations using an ELISA assay (Endogen, Inc.). In the experiments with Concanavalin A, the amount of IL-5 determined by ELISA was multiplied by 50 to account for the dilution factor.

[4] = tested on: mice; assay: Airway eosinophilia in mice (BAL fluid cells, DiffQuick stain); type: in vivo
Experimental: Mice were sensitized at day 14 with 20 μg/dose OVA or 100 μg/dose Alternaria extracts (cellular or culture) by intraperitoneal injection of the antigens followed by intranasal challenge with the appropriate antigen at 250 μg/dose on days 28, 30, and 32.
Eosinophils were detected in mice by collecting BAL fluids, isolating the cells using a cytospin preparation, and staining the cells with DiffQuick stain (DADE Behring, Inc., Newark, Del.).
Furthermore, at 250 μg/dose of Alternaria culture extract, about 10% of the mice died before day 8 due to massive respiratory failure.
To examine the role of IL-5 in airway eosinophilia induced by Alternaria culture extracts, mice were pre-treated with 25 μg/dose of an anti-IL-5 mAb (Pharmingen) or a control antibody (rat IgG) 24 hours before being intranasally challenged at days 0, 3, and 6 with 250 μg/dose OVA, or 250 μg/dose Alternaria culture extract. The number of eosinophils was analyzed by DiffQuick staining at day 8.

[5] = fluticasone 10^−10 M, asthma patient PBMC, 3 days
[6] = fluticasone 10^−10 M, medium alone, asthma patient PBMC, 3 days
[7] = fluticasone 10^−10 M, multiplied by 50 for dilution
[8] = fluticasone 10^−10 M, supernatant diluted 50-fold
[9] = pre-treatment 15 minutes, various concentrations, IL-5 10 ng/mL, 3 hours
[10] = pre-treatment 15 minutes, various concentrations, Alternaria culture extract 100 μg/mL, 3 hours

## NCCc1ccc(S(=O)(=O)F)cc1 [AEBSF]
[1]; Alternaria extracts pretreated with inhibitor, 4 hours, EDN release
  inhibition of Alternaria-induced eosinophil degranulation: 89%

## CCCCCCCCCCCCCCCCCCNC(=O)OCC(COC(=O)N(Cc1cccc[n+]1CC)C(C)=O)OC (stereo not drawn) [CV6209]
[1]; Homo sapiens, Eosinophil, read-out: IC50 for Alternaria-induced degranulation
  IC50: ~1000 nM

## O=C(O)CN(CCN(CC(=O)O)CC(=O)O)CC(=O)O [EDTA]
[2]
  effect on IL-5-induced eosinophil degranulation: completely inhibited
[1]; various concentrations
  effect on Alternaria-induced eosinophil degranulation: completely inhibited

## O=C(O)CN(CCOCCOCCN(CC(=O)O)CC(=O)O)CC(=O)O [EGTA]
[2]; 1 mM, pretreatment 15 minutes
  effect on IL-5-induced degranulation: only partially inhibited
[2]; 10 mM, pretreatment 15 minutes
  effect on IL-5-induced degranulation: almost completely inhibited
[1]; 1 mM, pretreatment 15 minutes
  effect on Alternaria-induced eosinophil degranulation: almost completely inhibited
[1]; 10 mM, pretreatment 15 minutes
  effect on Alternaria-induced eosinophil degranulation: almost completely inhibited

## C=CC[C@@H]1/C=C(\C)C[C@H](C)C[C@H](OC)[C@H]2O[C@@](O)(C(=O)C(=O)N3CCCC[C@H]3C(=O)O[C@H](/C(C)=C/[C@@H]3CC[C@@H](O)[C@H](OC)C3)[C@H](C)[C@@H](O)CC1=O)[C@H](C)C[C@@H]2OC [FK-506]
[2]; various concentrations
  effect on IL-5-induced eosinophil degranulation: no effect

## CN(C)CCCn1cc(C2=C(c3c[nH]c4ccccc34)C(=O)NC2=O)c2ccccc21 [GF109203X]
[2]; various concentrations
  effect on IL-5-induced eosinophil degranulation: partially inhibited

## O=c1c(-c2ccc(O)cc2)coc2cc(O)cc(O)c12 [Genistein]
[2]; various concentrations
  effect on IL-5-induced eosinophil degranulation: completely inhibited

## Cn1c2ccccc2c2c3c(c4c5ccccc5n(CCC#N)c4c21)CNC3=O [Go 6976]
[2]; various concentrations
  effect on IL-5-induced eosinophil degranulation: completely inhibited

## COc1cccc(-c2cc(=O)c3ccccc3o2)c1N [PD98059]
[2]; various concentrations
  effect on IL-5-induced eosinophil degranulation: partially inhibited

## CC(=O)c1c(O)c(C)c(O)c(Cc2c(O)c3c(c(C(=O)/C=C/c4ccccc4)c2O)OC(C)(C)C=C3)c1O [Rottelerin]
[2]; various concentrations
  effect on IL-5-induced eosinophil degranulation: completely inhibited

## C[S+]([O-])c1ccc(-c2nc(-c3ccncc3)c(-c3ccc(F)cc3)[nH]2)cc1 (stereo not drawn) [SB203580]
[2]; various concentrations
  effect on IL-5-induced eosinophil degranulation: completely inhibited

## CCCC[C@@H](C=O)NC(=O)[C@H](CC(C)C)NC(=O)OCc1ccccc1 [calpeptin, Calpeptin]
[2]; various concentrations
  effect on IL-5-induced eosinophil degranulation: partially inhibited

## C=C1[C@@H](C)[C@H]2[C@H](Cc3ccccc3)NC(=O)[C@]23OC(=O)/C=C/[C@H](O)CCC[C@@H](C)C/C=C/[C@H]3[C@@H]1O [cytochalasin B]
[2]; 5 μg/mL preincubation 15 minutes, IL-5 10 ng/mL, 3 hours
  effect on IL-5-induced degranulation: inhibited
[1]; 5 μg/mL preincubation 15 minutes, Alternaria culture extract 100 μg/mL, 3 hours
  effect on Alternaria-induced eosinophil degranulation: not affected

## CCC(=O)O[C@]1(C(=O)SCF)[C@H](C)C[C@H]2[C@@H]3C[C@H](F)C4=CC(=O)C=C[C@]4(C)[C@@]3(F)[C@@H](O)C[C@@]21C [fluticasone propionate]
[3]
  IL-5 production in the presence of Concanavalin A: inhibited
[3]; 10^−10 M, lowest concentration
  IL-5 production in Alternaria-induced PBMC: significantly inhibited
[3]; 10—O M as printed
  IL-5 production in the presence of Der P: inhibited
[3]; fluticasone 10^−9 M, asthma patient PBMC, 3 days
  IL-5, Cellular Alternaria Extract (25 μg/mL), 1: 0.4
[3]; [5]
  IL-5, Cellular Alternaria Extract (25 μg/mL), 1: 1.4
  IL-5, Cellular Alternaria Extract (25 μg/mL), 2: 3.9
  IL-5, Cellular Alternaria Extract (25 μg/mL), mean: 2.6
  IL-5, Der P (25 μg/mL), 2: 0.9
  IL-5, Der P (25 μg/mL), mean: 0.9
[3]; fluticasone 10^−10 M, mean of values multiplied by 50
  IL-5, Con A (5 μg/mL), mean: 101
[3]; [6]
  IL-5, Medium, 1: 1.3
  IL-5, Medium, 2: 0.3
  IL-5, Medium, mean: 0.8
[3]; [7]
  IL-5, Con A (5 μg/mL), 1*50: 87
  IL-5, Con A (5 μg/mL), 2*50: 115
[3]; [8]
  IL-5, Con A (5 μg/mL), 1: 1.7
  IL-5, Con A (5 μg/mL), 2: 2.3

## C[C@H](CCC(=O)O)C[C@H](C)C[C@H](C)C(=O)/C=C(\O)[C@H](C)C[C@H](C)C/C=C/[C@@H](C)[C@@H](O)[C@@H](C)[C@@H](O)C[C@@H]1CC[C@@](C)([C@H]2CC[C@@](C)([C@@H](C)O)O2)O1 [ionomycin]
[2]; [9]
  effect on IL-5-induced eosinophil degranulation: significantly inhibited
[1]; [10]
  effect on Alternaria-induced eosinophil degranulation: synergistically increased

## C/C=C(/C)C(=O)O[C@H]1C(C)=C2[C@H]([C@@H]1OC(=O)CCCCCCC)[C@@](C)(OC(C)=O)C[C@H](OC(=O)CCC)[C@@]1(O)[C@H]2OC(=O)[C@@]1(C)O [thapsigargin]
[2]; [9]
  effect on IL-5-induced eosinophil degranulation: significantly inhibited
[1]; [10]
  effect on Alternaria-induced eosinophil degranulation: synergistically increased

## Herbmycin
[2]; various concentrations
  effect on IL-5-induced eosinophil degranulation: completely inhibited

B1: OVA: OVA antigen used for sensitization and challenge of mice (protein, UniProt P01012 2-386, looked up)
Ovalbumin: GSIGAASMEFCFDVFKELKVHHANENIFYCPIAIMSALAMVYLGAKDSTRTQINKVVRFDKLPGFGDSIEAQCGTSVNVHSSLRDILNQITKPNDVYSFSLASRLYAEERYPILPEYLQCVKELYRGGLEPINFQTAADQARELINSWVESQTNGIIRNVLQPSSVDSQTAMVLVNAIVFKGLWEKAFKDEDTQAMPFRVTEQESKPVQMMYQIGLFRVASMASEKMKILELPFASGTMSMLVLLPDEVSGLEQLESIINFEKLTEWTSSNVMEERKIKVYLPRMKMEEKYNLTSVLMAMGITDVFSSSANLSGISSAESLKISQAVHAAHAEINEAGREVVGSAEAGVDAASVSEEFRADHPFLFCIKHIATNAVLFFGRCVSP
[4]; intranasal challenge only
  airway eosinophilia in non-sensitized (naïve) mice: not
[4]; intraperitoneal sensitization day 14, intranasal challenge 250 μg/dose days 28, 30, 32
  airway eosinophilia in sensitized and challenged mice: developed airway eosinophilia by day 34
